Inhibition and IC50 data for 4 molecules are collected here from patent US6930114B2, “Pyrrolo (2.1a)dihydroisoquinolines and their use as phosphodiesterase 10a inhibitors” (Bayer Pharmaceuticals Corporation, priority 2000, dated 2005).

Each structure is given as a SMILES string. Like-named read-outs stand apart in the source and are kept apart here.

Assay [1] concerns MDA-MB-231 human breast carcinoma cells. In words: In vitro proliferation inhibition assay (LDH activity, 72 hours). It is filed as cell-based. The note with it: MDA-MB-231 cells, read-out: % inhibition at a concentration of 10 μM. The method, then:
MDA-MB-231 human breast carcinoma cells (ATCC # HTB26) were cultured in standard growth medium (DMEM), supplemented with 10% heat-inactivated FBS, 10 mM HEPES, 2 mM glutamine, 100 U/mL penicillin, and 100 μg/mL streptomycin) at 37° C. in 5% CO2 (vol/vol) in a humidified incubator. Cells were plated at a density of 3000 cells per well in 100 μL growth medium in a 96 well culture dish. 24 hours after plating, LDH activity was determined using the Cytotox 96 Non-radioactive Cytotoxicity Kit (Promega, Madison, Wis., U.S.A.) to yield T0h LDH values. Briefly, cells were lysed with the addition of 200 μL of Lysis Buffer (included in the Promega Kit) and lysates were further diluted 1:50 in Lysis Buffer. 50 μL of diluted cell lysate were transferred to a fresh 96 well culture plate. The assay was initiated with the addition of 50 μL of substrate per well. Color development was allowed to proceed for 10-15 minutes. The assay was terminated with the addition of 50 μL of Stop Solution (included in Promega kit). Optical densities were determined spectrophotometrically at 490 nm in a 96 well plate reader (SpectraMax 250, Molecular Devices, Sunnyvale, Calif., U.S.A.).
Test compounds were dissolved in 100% DMSO to prepare 10 mM stocks. Stocks were further diluted 1:250 in growth medium to yield working stocks of 40 μM test compound in 0.4% DMSO. Test compounds were serially diluted in growth medium containing 0.4% DMSO to maintain constant DMSO concentrations for all wells. 50 μL of fresh growth medium and 50 μL of diluted test compound were added to each culture well to give a final volume of 200 μL. The cells with and without individual test compounds were incubated for 72 hours at which time LDH activity was measured to yield T72h values. Optionally, the IC50 values can be determined with a least squares analysis program using compound concentration versus percent inhibition. % Inhibition=[1−(T72h test−T0h)/(T72h ctrl−T0h)]×100 wherein • T72h test=LDH activity at 72 hours in the presence of test compound, • T72h ctrl=LDH activity at 72 hours in the absence of test compound and • T0h=LDH activity at Time Zero

Assay [2] has as its target T1, PDE 10a (Homo sapiens, UniProt Q9Y233).
T1 construct: Full-length recombinant PDE 10a was expressed in Sf9 insect cells; made in house; host or cells: Sf9 insect cells (Bac-to-Bac baculovirus system); crude lysate supernatant used
Description: In vitro enzyme inhibition assay (3H-cAMP scintillation proximity assay). The assay is classed as biochemical. The note with it: full-length recombinant PDE 10a, Sf9 cell lysate. Here is the method: Full-length recombinant PDE 10a was expressed in Sf9 insect cells (Invitrogen, Carlsbad, Calif., U.S.A.) using the Bac-to-Bac™ Baculovirus Expression System (Life Technologies, Gaithersburg, Md., U.S.A.). 48 hours post infection, cells were harvested and resuspended in 20 mL (per 1 L culture) Lysis Buffer (50 mM Tris-HCl, pH 7.4, 50 mM NaCl, 1 mM MgCl2, 1.5 mM EDTA, 10% glycerol plus 20 μL Protease Inhibitor Cocktail Set III [CalBiochem, La Jolla, Calif., U.S.A.]). Cells were sonicated at 4° C. for 1 minute and centrifuged at 10,000 RPM for 30 minutes at 4° C. Supernatant was removed and stored at −20° C. for activity assays.
The test compounds were serially diluted in DMSO using two-fold dilutions to stock concentrations ranging typically from 200 μM to 1.6 μM (final concentrations in the assay range from 4 μM to 0.032 μM). 96-well assay isoplates (Wallac Inc., Atlanta, Ga., U.S.A.) were loaded with 50 μL dilution buffer per well (dilution buffer: 50 mM Tris/HCl pH 7.5, 8.3 mM MgCl2, 1.7 mM EDTA, 0.2% BSA). 2 μL of the serially diluted individual test compounds were added to individual wells,m followed by 25 μL of a 1:25,000 dilution of crude recombinant PDE 10a-containing Sf9 cell lysate (diluted in dilution buffer described above). The enzymatic assay was initiated by addition of 25 μL (0.025 μCi) ^3H cyclic AMP tracer [5′,8-^3H] adenosine 3′,5′-cyclic phosphate (Amersham Pharmacia Biotech., Piscataway, N.J., U.S.A.) that was diluted 1:1000 in assay buffer (assay buffer: 50 mM Tris/HCl pH 7.5, 8.3 mM MgCl2, 1.7 mM EDTA). Reactions were incubated at room temperature for 60 minutes and terminated by addition of 25 μL of 18 mg/mL Yttrium Scintillation Proximity Beads (Amersham Pharmacia Biotech., Piscataway, N.J., U.S.A.). Plates were sealed and incubated at room temperature for 60 minutes. Plates were read for 30 seconds/well using a Microbeta counter (Wallac Inc., Atlanta, Ga., U.S.A.). The IC50 values were determined by plotting compound concentration versus percent inhibition.
On the technique in general: Scintillation proximity formats need no separation of bound from free tracer.

T1 sequence (Q9Y233 1-779 isoform Q9Y233-1): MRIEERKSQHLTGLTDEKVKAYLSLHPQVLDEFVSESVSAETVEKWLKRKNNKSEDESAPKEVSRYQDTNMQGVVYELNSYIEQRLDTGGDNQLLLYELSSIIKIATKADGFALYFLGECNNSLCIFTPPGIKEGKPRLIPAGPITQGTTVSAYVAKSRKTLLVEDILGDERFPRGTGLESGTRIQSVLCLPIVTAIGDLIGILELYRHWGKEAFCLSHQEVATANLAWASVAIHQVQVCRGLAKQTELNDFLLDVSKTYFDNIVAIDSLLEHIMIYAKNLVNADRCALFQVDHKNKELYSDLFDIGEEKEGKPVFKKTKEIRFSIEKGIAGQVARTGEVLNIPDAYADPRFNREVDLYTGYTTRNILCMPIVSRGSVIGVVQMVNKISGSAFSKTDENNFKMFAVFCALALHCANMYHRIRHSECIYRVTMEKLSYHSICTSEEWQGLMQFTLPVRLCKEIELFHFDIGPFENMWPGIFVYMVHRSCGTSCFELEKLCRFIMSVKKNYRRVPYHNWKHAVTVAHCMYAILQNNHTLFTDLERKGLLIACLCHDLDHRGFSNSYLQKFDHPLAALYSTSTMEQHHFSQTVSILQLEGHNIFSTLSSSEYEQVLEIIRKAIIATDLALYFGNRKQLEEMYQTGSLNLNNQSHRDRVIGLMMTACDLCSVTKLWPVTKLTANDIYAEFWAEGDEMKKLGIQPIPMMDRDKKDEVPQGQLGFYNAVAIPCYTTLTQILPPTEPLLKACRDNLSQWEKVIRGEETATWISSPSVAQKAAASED

A word on the IC50: it is the point on the concentration scale where inhibition reaches its midpoint. With `CCOC(=O)c1c(-c2cc(C)c(O)c(C)c2)c(C)n2c1-c1cc(OC)c(OC)cc1CC2` [(part a) 1], the inhibition at 10 µM in assay [1] (Examples of part a (Table 2a)) was 93%. In assay [2] (Examples of part a (Table 1a)), the IC50 came to 30 nM.
Take `CCOC(=O)c1c(-c2cccc(N(C)C)c2)c(C)n2c1-c1cc(OC)c(OC)cc1CC2` [(part a) 10]: the inhibition at 10 µM in assay [1] (Examples of part a (Table 2a)) was found to be 93%. In assay [2] (Examples of part a (Table 1a)), the IC50 turned out to be 42 nM.
`CCOC(=O)c1c(-c2cccc(N)c2)c(C)n2c1-c1cc(OC)c(OC)cc1CC2` [(part a) 28]: in assay [1] (Examples of part a (Table 2a)), the inhibition at 10 µM was 93%. Moreover, the IC50 in assay [2] (Examples of part a (Table 1a)) was 110 nM.
`CCOC(=O)c1c(-c2cc(O)cc(O)c2)c(C)n2c1-c1cc(OC)c(OC)cc1CC2` [(part b) 1]: in assay [1] (Examples of part b (Table 2b)), the inhibition at 10 µM was 89%. In addition, in assay [2] (Examples of part b (Table 1b)), the IC50 amounted to 110 nM.
